Data taken from patent US20210386729A1, “METHODS FOR TREATING LIVER DISORDERS USING FXR AGONISTS” (NOVARTIS AG, priority 2016, published 2021).
Read-outs that look alike come from different tables or passages of the source.

Columns and labels:
[1] = test system: rat alpha-naphthyl-isothiocyanate (ANIT) model; assay: Chronic treatment rat ANIT model, serum markers of cholestasis and liver damage; assay type: in vivo; conditions: 14 days oral dosing
Procedure: This model was utilized because it recapitulates many features of cholestasis observed in human PBC. In rats, ANIT-treatment leads to hepatic inflammatory cell infiltrate, bile duct hyperplasia, necrosis of bile duct epithelium, expansion of the hepatic portal region, hepatic fibrosis, hepatocellular necrosis and elevated levels of circulating bile acids, bilirubin, ALT, AST and GGT. These features are similar to subjects with advanced PBC.
Rats were treated with alpha-naphthyl-isothiocyanate (ANIT) (0.1% w/w) in food for 3 days prior to treatment with the compound at the indicated doses or with vehicle control (“Veh”). A non-cholestatic control group was fed standard chow diet without ANIT, and serve as the non-cholestatic control animals (“Control”). After 14 days of oral dosing, the indicated analyte was measured in serum. LLQ, lower limit of quantitation. Mean±SEM; n=5.

[2] = Single oral dose plasma pharmacokinetics in healthy subjects; assay type: in vivo, human; conditions: for CL/F / AUC(0-inf) / AUC(0-t) / Cmax / half-life / Tmax: healthy subjects, plasma; for AUC(0-inf) / AUC(0-t) / Cmax / half-life / Tmax: human
[3] = Protein binding, human vs rat; assay type: in vitro ADME
[4] = In vitro potency, human vs rat
[5] = Human efficacy dose calculation from rat efficacious exposure
Procedure: The human efficacy dose was calculated based on the efficacious exposure in the rat ANIT-induced disease model. Since the in vitro potency and protein binding between human and rat were similar, the EC80 exposure in human was assumed to be the same as that in rat (3.05 ng*h/mL).

[6] = Pharmacokinetics in the chronic 2 week rat ANIT-induced cholestasis model; assay type: in vivo; conditions: male, Wistar, po, day 13, serum; for AUC(0-t): read-out: AUC 0-24 hr
Procedure: Male Wistar rats were treated with ANIT (0.1% ANIT in chow diet) for 2 weeks. […] The serum samples were collected on day 14 for analysis of biomarkers of hepatobiliary injury (including ALT, AST, bilirubin and bile acids). […] The mean biomarker data were compared to the PK data (average concentration at each dose) for the modeling. The IC80 was determined using the Inhibitory effect Imax model (effect C=0 at Imax, C=infinity at E0) built in Phoenix WinNonlin 6.3 software. […] Therefore, we chose to use a mean of the IC80 for the four biomarkers (total bilirubin, total bile acids, ALT and AST) as the IC80 for efficacy in this model.
ND=not determined. Data are presented as mean (n=3/group).

[7] = 10 ug, single oral dose 10 μg, fasted, mean
[8] = 30 ug, single oral dose 30 μg, fasted, mean
[9] = 100 ug, single oral dose 100 μg, fasted, mean
[10] = 300 ug, single oral dose 300 μg, fasted, mean
[11] = 1000 ug, single oral dose 1000 μg, fasted, mean
[12] = 3000 ug, single oral dose 3000 μg, fasted, mean

O=C(O)c1cc(F)c2nc(N3C4CC[C@H]3CC(OCc3c(-c5ccccc5OC(F)(F)F)noc3C3CC3)C4)sc2c1 (some centres unmarked) [Compound A]
serum bile acid concentrations [1]: Marked reductions | serum bilirubin concentrations [1]: Marked reductions | hepatobiliary injury indicators (AST, ALT, bilirubin, bile acids) in serum ([1]; 0.01 to 3 mg/kg): improved many of these indicators starting at doses as low as 0.01 mg/kg | CL/F ([2]; single oral dose 10 μg, fasted, mean): 2.98 L/h | CL/F ([2]; single oral dose 30 μg, fasted, mean): 2.26 L/h | CL/F ([2]; single oral dose 100 μg, fasted, mean): 3.08 L/h | CL/F ([2]; single oral dose 300 μg, fasted, mean): 3.21 L/h | CL/F ([2]; single oral dose 1000 μg, fasted, mean): 2.43 L/h | CL/F ([2]; single oral dose 3000 μg, fasted, mean): 3.63 L/h | AUC(0-inf) [2, 7]: 3.39 ng·h/mL | AUC(0-t) [2, 7]: 2.79 ng·h/mL | Cmax [2, 7]: 0.186 ng/mL | half-life ([2]; 10 ug, single oral dose 10 μg, fasted, mean, read-out: T1/2 (converted)): 14.9 h | Tmax ([2]; 10 ug, single oral dose 10 μg, fasted, median, read-out: Tmax): 4 h | AUC(0-inf) [2, 8]: 13.4 ng·h/mL | AUC(0-t) [2, 8]: 12.7 ng·h/mL | Cmax [2, 8]: 0.627 ng/mL | half-life ([2]; 30 ug, single oral dose 30 μg, fasted, mean, read-out: T1/2 (converted)): 13.7 h | Tmax ([2]; 30 ug, single oral dose 30 μg, fasted, median, read-out: Tmax): 4 h | AUC(0-inf) [2, 9]: 37.9 ng·h/mL | AUC(0-t) [2, 9]: 34.8 ng·h/mL | Cmax [2, 9]: 1.73 ng/mL | half-life ([2]; 100 ug, single oral dose 100 μg, fasted, mean, read-out: T1/2 (converted)): 13.5 h | Tmax ([2]; 100 ug, single oral dose 100 μg, fasted, median, read-out: Tmax): 4 h | AUC(0-inf) [2, 10]: 123 ng·h/mL | AUC(0-t) [2, 10]: 119 ng·h/mL | Cmax [2, 10]: 6.41 ng/mL | half-life ([2]; 300 ug, single oral dose 300 μg, fasted, mean, read-out: T1/2 (converted)): 15.3 h | Tmax ([2]; 300 ug, single oral dose 300 μg, fasted, median, read-out: Tmax): 4 h | AUC(0-inf) [2, 11]: 482 ng·h/mL | AUC(0-t) [2, 11]: 416 ng·h/mL | Cmax [2, 11]: 22.1 ng/mL | half-life ([2]; 1000 ug, single oral dose 1000 μg, fasted, mean, read-out: T1/2 (converted)): 21.9 h | Tmax ([2]; 1000 ug, single oral dose 1000 μg, fasted, median, read-out: Tmax): 4 h | AUC(0-inf) [2, 12]: 933 ng·h/mL | AUC(0-t) [2, 12]: 888 ng·h/mL | Cmax [2, 12]: 54.2 ng/mL | half-life ([2]; 3000 ug, single oral dose 3000 μg, fasted, mean, read-out: T1/2 (converted)): 16.5 h | Tmax ([2]; 3000 ug, single oral dose 3000 μg, fasted, median, read-out: Tmax): 4 h | Tmax ([2]; single oral dose, fasted, read-out: median Tmax): 4 h | half-life ([2]; single oral dose, range across doses, read-out: mean apparent terminal elimination half-life): 13 to 22 h | dose proportionality of mean Cmax and AUCinf ([2]; single dose, dose range 10 μg to 3000 μg): approximately dose proportional increase | protein binding between human and rat [3]: similar | in vitro potency between human and rat [4]: similar | Cmax at estimated human efficacious dose ([5]; at dose of ~6 μg): ~0.2 ng/mL | EC80 exposure ([5]; rat value, human assumed to be the same): 3.05 ng·h/mL | Cmax ([6]; 0.01 mg/kg): 0.39 ng/mL | AUC(0-t) ([6]; 0.01 mg/kg): 3.49 ng·h/mL | Cmax ([6]; 0.05 mg/kg): 2.28 ng/mL | Cmax ([6]; 0.25 mg/kg): 15.6 ng/mL | AUC(0-t) ([6]; 0.25 mg/kg): 158 ng·h/mL | Cmax ([6]; 1.0 mg/kg): 52 ng/mL | AUC(0-t) ([6]; 1.0 mg/kg): 582 ng·h/mL
